Test results published in patent publication US20240409519A1, “HYDROGENATED QUINOXALINES” (OTSUKA PHARMACEUTICAL CO., LTD., priority 2021, published 2024).

Experiments:
CYP3A4 = target: T1, CYP3A4 (Homo sapiens, UniProt P08684); assay: CYP inhibition test (1): inhibition rate (%) at one concentration, CYP3A4; assay type: in vitro ADME; conditions: human liver microsomes, pH 7.4, probe midazolam (0.005 mmol/L); test compound 0.01 mmol/L, human liver microsome 0.1 mg/mL, substrate midazolam, 37° C. 10 minutes; read-out: inhibition rate (%) 3A4
T1 construct: a human liver microsome solution containing three CYP-specific substrates; from tissue; host or cells: human liver microsomes
Procedure: (§1) A metabolic reaction was initiated by adding and mixing a test compound solution (final concentration 0.01 mmol/L) and a NADH/NADPH solution (final concentration 1 mmol/L) to a human liver microsome solution containing three CYP-specific substrates (final concentration 100 mmol/L potassium phosphate buffer solution (pH 7.4), 5 mmol/L magnesium chloride, 0.1 mg/mL human liver microsome, 0.005 mmol/L diclofenac (for CYP2C9), 0.01 mmol/L bufuralol (for […]), 0.005 mmol/L midazolam (for CYP3A4)). As an internal standard solution, a solution of each of stable isotopes of the metabolites (50 ng/mL [13C6] hydroxy diclofenac, 5 ng/mL [2H9] hydroxy bufuralol, and 5 ng/mL [13C6] hydroxy midazolam (all stable isotopes)) in methanol was prepared and used as a quenching solution.
(§2) Specifically, a metabolic reaction was initiated by adding and mixing 2 μL of a solution of a test compound in acetonitrile (or acetonitrile as a control) to 178 μL of a human liver microsome solution in ice water, followed by preincubation at 37° C. for 1 minute, and then adding 20 μL of a NADH/NADPH solution thereto. After incubation at 37° C. for 10 minutes, 50 μL of the reaction mixture was taken, and then it was added and mixed to 500 μL of a quenching solution to quech the reaction. The mixture was centrifuged (6130 g, 4° C., 10 minutes) and the supernatant was used as a sample for LC-MS/MS.
(§3) Peak area ratio ([peak area of metabolite]/[peak area of corresponding stable isotope]) was calculated for a metabolite and a stable isotope of the metabolite as measurement object. By comparing the peak area ratio of each test compound solution with that of the control, the inhibition rate (%) of each CYP species for each test compound was calculated from (1-[peak area ratio of each test compound solution]/[peak area ratio of control])×100.

[1] = Metabolic stability test (human liver microsome, hepatic intrinsic clearance); assay type: in vitro ADME; conditions: human liver microsomes, pH 7.4; human liver microsome 0.2 mg/mL, test compound 0.001 mmol/L, 37° C., 0, 10 and 20 minutes
Procedure: A metabolic reaction was initiated by adding and mixing a test compound solution (final concentration 0.001 mmol/L) and a NADH/NADPH solution (final concentration 1 mmol/L) to a human liver microsome solution (final concentration 100 mmol/L potassium phosphate buffer solution (pH 7.4), 5 mmol/L magnesium chloride, 0.2 mg/ml, human liver microsome). A solution of the internal standard in methanol was prepared and used as a quenching solution.
Specifically, a metabolic reaction was initiated by adding and mixing 2.5 μL of a solution of a test compound in acetonitrile to 222.5 μL of a human liver microsome solution in ice water, followed by preincubation at 37° C. for 1 minute, and then adding 25 μL of a NADH/NADPH solution thereto.
(§4) The mixture was centrifuged (6130 g, 4° C., 10 minutes) and the supernatant was used as a sample for LC-MS/MS.
Peak area ratio ([peak area of test compound]/[peak area of internal standard]) was calculated for the test compound and the internal standard.
The residual ratio of the test compound was calculated from ([Ratio of peak areas at each reaction time]/[Ratio of peak areas at 0 minute reaction time]).

CYP2C9 = target: T2, CYP2C9 (Homo sapiens, UniProt P11712); assay: CYP inhibition test (1): inhibition rate (%) at one concentration, CYP2C9; assay type: in vitro ADME; conditions: human liver microsomes, pH 7.4, probe diclofenac (0.005 mmol/L); test compound 0.01 mmol/L, human liver microsome 0.1 mg/mL, substrate diclofenac, 37° C. 10 minutes; read-out: inhibition rate (%) 2C9
T2 construct: a human liver microsome solution containing three CYP-specific substrates; from tissue; host or cells: human liver microsomes
Procedure: as §1, §2, §3

serotonin (5-HT) uptake = target: T3, serotonin (5-HT) uptake (Rattus norvegicus, UniProt P31652); assay: Serotonin (5-HT) uptake inhibitory activity in rat brain synaptosome; assay type: biochemical; conditions: rat frontal cortex synaptosome, tritium-labeled 5-HT 8 nM; read-out: IC50 (nM), serotonin (5-HT) uptake inhibition
T3 construct: used as crude synaptosomal fraction; from tissue; host or cells: rat frontal cortex, crude synaptosomal fraction
Procedure: Male Wistar rats were decapitated, each brain was removed, and the frontal cortex was cut out. […] The homogenate was centrifuged at 1000 g at 4° C. for 10 minutes, and the supernatant was further centrifuged at 20000 g at 4° C. for 20 minutes. The pellet was suspended in an incubation buffer (20 mM Hepes buffer (pH 7.4) containing 10 mM glucose, 145 mM sodium chloride, 4.5 mM potassium chloride, 1.2 mM magnesium chloride and 1.5 mM calcium chloride) and used as crude synaptosomal fraction.
Each well of a 96-well round-bottom plate was used for the uptake reaction in a total volume of 200 μL solution containing purgurin (final concentration 10 μM) and ascorbic acid (final concentration 0.2 mg/mL). In other words, solvent, unlabeled 5-HT or step-diluted test compound was added to each well, and one-tenth of the final volume of the synaptosomal fraction was added to each well, followed by pre-incubation at 37° C. for 10 minutes, and then tritium-labeled 5-HT solution (final concentration 8 nM) was added and the uptake reaction was initiated at 37° C. After 10 minutes, the uptake reaction was terminated by suction filtration onto a 96-well glass fiber filter plate. The filters were rinsed with cold physi-ological saline solution, dried thoroughly, and micro scintillation 0 (Perkin-Elmer) was added thereto. Then, the residual radioactivity on the filters was measured.
The uptake value when only solvent was added was set as 100%, the uptake value when unlabeled 5-HT (final concentration 10 μM) was added as 0% (nonspecific uptake value), and the 50% inhibitory concentration was calculated from the concentration of the test compound and its inhibitory activity.

[2] = Protein binding rate test (human serum, equilibrium dialysis); assay type: in vitro ADME; conditions: test compound 0.001 mmol/L, equilibrium dialysis 37° C. 6 hours
Procedure: A serum sample was prepared by adding a test compound solution to a human serum (final concentration of the test compound: 0.001 mmol/L). The serum sample and Dulbecco's Phosphate-Buffered Saline (D-PBS(−)) were added to the wells separated by a dialysis membrane to start the reaction. A solution of the internal standard in methanol was prepared and used as a quenching solution.
Specifically, the dialysis membrane (cut-off molecular weight 12000-14000) was pre-conditioned by immersing it in distilled water, followed by 20% ethanol. Then, the membrane was washed with D-PBS(−) and set in an equilibrium dialysis kit. Then, 150 μL of D-PBS(−) was added to one part of each well divided by the dialysis membrane, and 150 μL of serum sample was added to the other part. After sealing all wells and incubation at 37° C. for 6 hours, 30 μL from the serum side and 90 μL from the PBS side of each well were collected and mixed with 90 μL of D-PBS(−) or 30 μL of blank serum and 480 μL of a quenching solution to quench the reaction.
as §4
Peak area ratio ([peak area of test compound]/[peak area of internal standard]) was calculated for the test compound and the internal standard. By comparing the peak area ratio of the PBS side for each test compound with that of the serum side, the protein binding rate (%) of each test compound was calculated from (1-[peak area ratio of PBS side]/[peak area ratio of serum side])×100.

T1 sequence (P08684 whole entry): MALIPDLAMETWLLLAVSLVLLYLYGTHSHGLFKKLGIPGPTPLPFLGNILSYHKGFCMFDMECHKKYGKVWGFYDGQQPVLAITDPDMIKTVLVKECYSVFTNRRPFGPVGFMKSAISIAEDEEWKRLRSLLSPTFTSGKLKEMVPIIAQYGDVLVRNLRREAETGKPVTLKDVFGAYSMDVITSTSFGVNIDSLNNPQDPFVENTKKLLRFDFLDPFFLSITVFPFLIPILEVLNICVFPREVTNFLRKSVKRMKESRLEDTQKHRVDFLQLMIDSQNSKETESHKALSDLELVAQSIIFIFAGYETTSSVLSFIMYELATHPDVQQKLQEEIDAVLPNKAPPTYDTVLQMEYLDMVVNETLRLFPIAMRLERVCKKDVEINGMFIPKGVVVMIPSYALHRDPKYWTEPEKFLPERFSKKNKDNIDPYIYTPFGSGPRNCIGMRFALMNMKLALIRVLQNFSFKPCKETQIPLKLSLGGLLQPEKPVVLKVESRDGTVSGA
T3 sequence (P31652 whole entry): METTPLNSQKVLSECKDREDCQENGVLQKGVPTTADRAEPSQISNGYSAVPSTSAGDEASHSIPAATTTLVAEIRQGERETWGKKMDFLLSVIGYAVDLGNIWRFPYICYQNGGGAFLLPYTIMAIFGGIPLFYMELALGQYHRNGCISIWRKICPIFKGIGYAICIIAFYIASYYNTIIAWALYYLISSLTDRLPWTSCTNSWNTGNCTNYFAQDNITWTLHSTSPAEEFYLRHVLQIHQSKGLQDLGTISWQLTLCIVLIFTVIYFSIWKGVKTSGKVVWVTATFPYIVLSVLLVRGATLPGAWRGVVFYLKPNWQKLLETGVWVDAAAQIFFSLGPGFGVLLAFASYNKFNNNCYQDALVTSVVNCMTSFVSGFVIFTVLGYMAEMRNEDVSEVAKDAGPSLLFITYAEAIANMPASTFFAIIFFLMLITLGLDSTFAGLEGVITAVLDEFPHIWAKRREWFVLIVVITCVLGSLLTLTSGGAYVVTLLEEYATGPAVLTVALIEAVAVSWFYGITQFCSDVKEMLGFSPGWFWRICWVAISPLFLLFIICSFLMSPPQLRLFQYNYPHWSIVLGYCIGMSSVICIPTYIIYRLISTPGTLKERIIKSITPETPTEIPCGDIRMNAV
T2 sequence (P11712 whole entry): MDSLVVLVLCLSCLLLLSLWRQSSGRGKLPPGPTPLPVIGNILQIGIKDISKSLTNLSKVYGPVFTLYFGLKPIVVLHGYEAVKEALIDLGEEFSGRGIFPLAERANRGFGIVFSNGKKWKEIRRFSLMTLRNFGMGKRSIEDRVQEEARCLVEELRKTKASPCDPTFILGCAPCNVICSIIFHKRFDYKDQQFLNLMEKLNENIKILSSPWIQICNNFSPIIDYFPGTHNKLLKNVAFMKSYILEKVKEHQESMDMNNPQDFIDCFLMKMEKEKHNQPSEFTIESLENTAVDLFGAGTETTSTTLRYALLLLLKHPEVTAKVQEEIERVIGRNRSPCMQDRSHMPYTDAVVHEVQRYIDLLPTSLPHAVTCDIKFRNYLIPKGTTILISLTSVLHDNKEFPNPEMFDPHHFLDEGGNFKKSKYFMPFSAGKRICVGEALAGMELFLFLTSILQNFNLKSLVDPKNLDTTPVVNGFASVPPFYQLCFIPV

Structure (SMILES) | inhibition at 10 min, 0.01 mmol/L (CYP3A4) [%] | microsomal CLint at 0.001 mmol/L [1] [µL/min/mg] | inhibition at 10 min, 0.01 mmol/L (CYP2C9) [%] | IC50 (serotonin (5-HT) uptake) [nM] | fraction unbound at 6 h, 0.001 mmol/L [2]
OCCOc1c(F)cc(N2CC3(CCC3)N[C@H]3CCCC[C@@H]32)cc1Cl [Example 6] | 23.3 | < 50 | -6.4 | 6.1 | 0.401
OCCOc1ccc(N2CC3(CCC3)N[C@H]3CCCC[C@@H]32)cc1 [Example 8] | 7.1 | < 50 | 8.1 | 10 | 0.686
COc1cc(N2CC3(CCC3)N[C@H]3CCCC[C@@H]32)ccc1OCCO [Example 11] | -1.3 | < 50 | 7.5 | 39.6 | 0.767
Cc1cc(N2CC3(CCC3)N[C@H]3CCCC[C@@H]32)cc(F)c1OCCO [Example 14] | 14.4 | < 50 | 13.6 | 5.8 | 0.615
C[C@@H]1CN(c2cc(F)c(OCCO)c(Cl)c2)[C@H]2CCCC[C@@H]2N1 [Example 17, 2-(2-chloro-6-fluoro-4-((3R,4aS,8aS)-3-methyloctahydroquinoxalin-1(2H)-yl)phenoxy)ethan-1-ol 1/2fumarate] | – | < 50 | – | 7.3 | 0.727
C[C@H]1CN(c2cc(F)c(OCCO)c(Cl)c2)[C@H]2CCCC[C@H]2N1 [Example 18] | – | < 50 | – | 73.1 | 0.741
C[C@@H]1CN(c2ccc(OC(F)(F)CO)c(Cl)c2)[C@H]2CCCC[C@@H]2N1 [Example 19] | 16.1 | < 50 | 5.8 | 62.7 | 0.471
CC1(C)CN(c2ccc(OC(F)(F)CO)cc2)[C@H]2CCCC[C@@H]2N1 [Example 20, 2-(4-((4aS,8aS)-3,3-dimethyloctahydroquinoxalin-1(2H)-yl)phenoxy)-2,2-difluoroethan-1-ol] | – | < 50 | – | 4.7 | 0.569
CC1(C)CN(c2ccc(OC(F)(F)CO)cc2)[C@@H]2CCCC[C@H]2N1 [Example 21] | – | < 50 | – | 89.9 | 0.585
COc1cc(N2CC(C)(C)N[C@H]3CCCC[C@@H]32)ccc1OC(F)(F)CO [Example 26] | – | < 50 | – | 18.1 | 0.58
CC1(C)CN(c2ccc(OCCO)c(Cl)c2)[C@H]2CCCC[C@@H]2N1 [Example 27, 2-(2-chloro-4-((4aS,8aS)-3,3-dimethyloctahydroquinoxalin-1(2H)-yl)phenoxy)ethan-1-ol] | – | < 50 | – | 7.6 | 0.585
CC1(C)CN(c2ccc(OCCO)c(Cl)c2)[C@@H]2CCCC[C@H]2N1 [Example 28] | – | < 50 | – | 55.1 | 0.616
Cc1cc(N2CC(C)(C)N[C@H]3CCCC[C@@H]32)ccc1OC(F)(F)CO [Example 31] | – | < 50 | – | 26.6 | 0.497
Cc1cc(N2CC(C)(C)N[C@@H]3CCCC[C@H]32)ccc1OC(F)(F)CO [Example 32] | – | < 50 | – | 98.3 | 0.482
CC1(C)CN(c2cc(F)c(OCCO)c(F)c2)[C@H]2CCCC[C@@H]2N1 [Example 34, 2-(4-((4aS,8aS)-3,3-dimethyloctahydroquinoxalin-1(2H)-yl)-2,6-difluorophenoxy)ethan-1-ol] | – | < 50 | – | 8.9 | 0.796
CC1(C)CN(c2cc(F)c(OCCO)c(F)c2)[C@@H]2CCCC[C@H]2N1 [Example 35] | – | < 50 | – | 71 | 0.776
CC1(C)CN(c2cc(F)c(OCCO)c(F)c2)[C@H]2CCCC[C@H]2N1 [Example 36] | – | < 50 | – | 60.1 | 0.638
CN1[C@H]2CCCC[C@@H]2N(c2ccc(OC(F)(F)CO)cc2)CC1(C)C [Example 37, 2,2-difluoro-2-(4-((4aS,8aS)-3,3,4-trimethyloctahydroquinoxalin-1(2H)-yl)phenoxy)ethan-1-ol] | – | < 50 | – | 87.4 | 0.529
